Holding throughout (assay): Antibacterial activity, agar dilution method (MIC)
What all share (type): cell-based
Background: Agar dilution tests growth on a series of plates holding different concentrations.

For assay [1], the system named is Proteus vulgaris IFO 3045. As to conditions: IFO3045, 10^6 CFU/ml, 37° C., 18-20 hours, pH 7.0. As to the method: (§1) The above-mentioned minimum inhibitory concentration (MIC; μg/ml) values were determined by the agar dilution method using the medium mentioned below. The inoculum size was one loopful with a viable count of 10^6 CFU/ml. Incubation was performed at 37° C. for 18-20 hours. Medium: glucose 3%, sodium glutamate 0.5%, K2 HPO4 0.05%, MgSO4.7H2 O 0.05%, KCl 0.05%, yeast extract (Difco) 0.05%, Casamino acid 0.02%, agar 1.5% (pH 7.0).

In assay [2] the test system is Bacillus subtilis PCI 219. The following applies: PCI219, 10^6 CFU/ml, 37° C., 18-20 hours, pH 7.0. The procedure:
as §1

For assay [3], the system named is Proteus morganii IFO 3168. The following applies: Morganella morganii, IFO3168, 10^6 CFU/ml, 37° C., 18-20 hours, pH 7.0. As to the method:
as §1

The test system of assay [4] is Escherichia coli NIHJ JC-2. The following applies: NIHJJC2, 10^6 CFU/ml, 37° C., 18-20 hours, pH 7.0. The procedure: as §1
Assay [5] relates to Proteus vulgaris IFO 3988. As to conditions: IFO3988, 10^6 CFU/ml, 37° C., 18-20 hours, pH 7.0. As to the method:
as §1

We go through one molecule from patent US4436918A, “Method for production of peptide, and its intermediate” (Takeda Chemical Industries, Ltd., priority 1981, dated 1984).

Values after ≈ are worked out from the molar mass of the structure shown.

As a reminder, the MIC is the lowest concentration that inhibits growth of the organism. Read a high MIC as weaker potency.

As to `C[C@@H](N)C(=O)NC(C(=O)O)C1CC(O)NC1=O` (stereo partly drawn) [D-Alanyl-2-(5-hydroxy-2-oxopyrrolidin-3-yl)glycine], the MIC lay in the range of 0.6 to 2.4 µg/mL (≈ 2.45 to 9.79 µM) in assay [1]; 6 to 24 µg/mL (≈ 24.5 to 97.9 µM) in assay [2]; 3 to 12 µg/mL (≈ 12.2 to 48.9 µM) in assay [3]; 3 to 12 µg/mL (≈ 12.2 to 48.9 µM) in assay [4]; 1.6 to 4.8 µg/mL (≈ 6.52 to 19.6 µM) in assay [5].
